Assays:
[1] = system: E. coli clinical isolates; experiment: standard susceptibility testing (disc diffusion); as to Ampicillin susceptibility: key: S, susceptible; R, resistant; as to Cephalexin susceptibility: key: S, susceptible; R, resistant; type: cell-based; settings: for standard susceptibility testing: E. coli isolate SF334 (blaTEM-1)
[2] = system: K. pneumoniae clinical isolates; experiment: standard susceptibility testing (disc diffusion); type: cell-based; also: key: S, susceptible; R, resistant
papain = papain (Carica papaya, UniProt P00784); settings: BAPA as papain substrate; cited from earlier work
Chain of papain (P00784 134-345): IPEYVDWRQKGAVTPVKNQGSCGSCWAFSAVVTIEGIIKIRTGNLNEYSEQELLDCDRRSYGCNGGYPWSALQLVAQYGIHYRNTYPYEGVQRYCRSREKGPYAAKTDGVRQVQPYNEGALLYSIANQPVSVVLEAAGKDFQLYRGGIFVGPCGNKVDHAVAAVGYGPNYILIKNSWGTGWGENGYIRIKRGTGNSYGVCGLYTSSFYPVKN

[3] = system: E. coli isolated from CA-UTI urine samples; experiment: susceptibility testing of E. coli cultured from CA-UTI urine samples; type: cell-based; settings: 23 of 34 E. coli from CA-UTI samples
Method: In order to establish the threshold Δλ405 of DETECT, that delineates β-lactam-susceptible from β-lactam-resistant urine samples, we simultaneously analyzed urine samples by traditional microbiology techniques as a standard for comparison (raw Δλ405 of DETECT values shown in Table S1). As such, urine samples were cultured for identification of E. coli, and E. coli isolates were tested for susceptibility to ampicillin and cephalexin. Samples were separated for analyses based on susceptibility or resistance to these agents, and an average Δλ405 value was calculated for each group. The average Δλ405 values corresponding to β-lactam-resistant and β-lactam-susceptible samples are shown in FIG. 5B, where the average Δλ405 of samples defined by traditional susceptibility analyses as resistant to ampicillin or cephalexin was 1.026, and the average Δλ405 in samples containing susceptible E. coli was 0.2990 (p=0.00048, two-tailed t-test). Finally, the threshold value was defined as 0.616, three standard deviations greater than the average Δλ405 of β-lactam-susceptible isolates. Therefore, samples with Δλ405>0.616 were defined as “positive” by DETECT (or resistant to early-generation β-lactams), and samples with Δλ405<0.616 were defined as “negative” by DETECT (or susceptible to β-lactams), the latter of which would qualify for treatment with an early-generation β-lactam. […]

[4] = target: recombinant TEM-1 β-lactamase (Escherichia coli, UniProt P62593); settings: recombinant TEM-1, absorbance 486 nm
Chain of recombinant TEM-1 β-lactamase (P62593 24-286 limits assumed): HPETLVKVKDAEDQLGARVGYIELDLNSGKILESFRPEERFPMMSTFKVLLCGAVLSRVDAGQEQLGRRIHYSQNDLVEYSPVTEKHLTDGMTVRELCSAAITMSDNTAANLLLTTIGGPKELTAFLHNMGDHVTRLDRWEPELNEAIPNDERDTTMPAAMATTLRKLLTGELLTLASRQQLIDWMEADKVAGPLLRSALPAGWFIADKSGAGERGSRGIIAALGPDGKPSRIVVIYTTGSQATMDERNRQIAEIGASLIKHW
From the text: To verify the targeting capacity and establish the amplification capacity of thiophenol-β-lac, we first targeted the β-lactamase TEM-1, which mediates resistance to β-lactam antibiotics, such as ampicillin We compared the sensitivity of DETECT against the standard chromogenic β-lactamase probe nitrocefin (FIG. 3)^19. Recombinant TEM-1 activity was quantified by measuring the formation of the hydrolytic chromogenic products from DETECT or nitrocefin in a time-dependent manner with a microplate reader (DETECT hydrolytic product=405 nm, and nitrocefin hydrolytic product=486 nm).
(B) Time-dependent plot of β-lactamase activity assay performed with DETECT, where varied concentrations of recombinant TEM-1 were incubated with the DETECT system in a 96-well plate for 90 min. The absorbance at 405 nm was collected in 5 min intervals and plotted against time. (C) Photograph of color change caused from DETECT amplification in wells where TEM-1 was present at increasing concentrations from right to left. The rightmost well is a control well where all the components were incubated in the absence of TEM-1. (D) Time-dependent biochemical experiment where varied concentrations of TEM-1 were incubated with the standard β-lactamase probe nitrocefin in a 96-well plate, and the respective absorbance values were collected on a microplate reader (486 nm). […]

[5] = system: TEM-1-producing E. coli clinical isolate SF334; type: cell-based; settings: E. coli isolate SF334 (TEM-1)
Method: Whole-cell suspensions of SF334 were prepared as described above. First, we confirmed β-lactamase activity in the TEM-1-producing clinical isolate by incubating 10^6 CFU of SF334 with the DETECT components (FIG. 4A), then collecting absorbance values at 405 nm after 45, 60, 120, and 180 min of incubation. […] The analogous experiment was performed with nitrocefin, where whole-cell suspensions of SF334 and SF505 were incubated with nitrocefin. As indicated in the literature, samples were incubated with nitrocefin for up to only 30 min to minimize background signal associated with non-selective hydrolysis^14.
Subsequent studies were performed to establish the detection limit of DETECT relative to nitrocefin, by serially diluting isolate SF334 in 100-fold increments. […]
(A) Schematic representation of the experiments performed with E. coli clinical isolates, where bacterial suspensions were incubated with DETECT components thiophenol-β-lac, disulfide-protected papain, and BAPA in a 96-well plate. Following 1 h of incubation, the sample wells were analyzed with a microplate reader and the absorbance at 405 nm was collected. […] (C) Plot displaying the signal outputs generated by DETECT in the presence of varying quantities of SF334, which was carried out to define the signal threshold of DETECT compared to the current standard, nitrocefin. […]

[6] = E. coli isolate BE30, β-lactamase gene SHV-1
[7] = E. coli isolate BE115, β-lactamase gene OXA-1
[8] = E. coli isolate BE372, β-lactamase gene TEM-1 (1b)
[9] = E. coli isolate BE527, β-lactamase gene SHV-1
[10] = E. coli isolate BE1004, β-lactamase gene TEM-1 (1c)
[11] = E. coli isolate BE1173, β-lactamase gene TEM-1 (1b)
[12] = E. coli isolate BE1335, β-lactamase gene SHV-1
[13] = E. coli isolate BR2, β-lactamase gene KPC-2
[14] = E. coli isolate SF105, β-lactamase gene TEM-1
[15] = E. coli isolate SF141, β-lactamase gene CMY-2
[16] = E. coli isolate SF148, β-lactamase gene CTX-M-14
[17] = E. coli isolate SF207, β-lactamase gene CMY-2
[18] = E. coli isolate SF384, β-lactamase gene ND
[19] = E. coli isolate SF410, β-lactamase gene CTX-M-15
[20] = E. coli isolate SF487, β-lactamase gene CTX-M-14
[21] = E. coli isolate SF674, β-lactamase gene CTX-M-15
[22] = K. pneumoniae isolate ATCC 700603, β-lactamase gene SHV-18 (ESBL)
[23] = K. pneumoniae isolate BR1, β-lactamase gene SHV-185
[24] = K. pneumoniae isolate BR27, β-lactamase gene SHV-11
[25] = K. pneumoniae isolate BR28, β-lactamase gene KPC-2, SHV-11
[26] = K. pneumoniae isolate BR45, β-lactamase gene SHV-38/168
[27] = K. pneumoniae isolate BR50, β-lactamase gene SHV-62
[28] = K. pneumoniae isolate BR52, β-lactamase gene SHV-132
[29] = K. pneumoniae isolate BR313, β-lactamase gene SHV-83/187
[30] = K. pneumoniae isolate SF412, β-lactamase gene ND
[31] = K. pneumoniae isolate SF519, β-lactamase gene ND

CC1=C(C(=O)O)N2C(=O)[C@@H](NC(=O)[C@H](N)c3ccccc3)[C@H]2SC1 [Cephalexin, cephalexin]
S: Cephalexin susceptibility [1, 6] | Cephalexin susceptibility [1, 7] | Cephalexin susceptibility [1, 9] | Cephalexin susceptibility [1, 10] | Cephalexin susceptibility [1, 11] | Cephalexin susceptibility [1, 12] | Cephalexin susceptibility [1, 18] | Cephalexin susceptibility [2, 23] | Cephalexin susceptibility [2, 24] | Cephalexin susceptibility [2, 26] | Cephalexin susceptibility [2, 27] | Cephalexin susceptibility [2, 28] | Cephalexin susceptibility [2, 29] | Cephalexin susceptibility [2, 30] | Cephalexin susceptibility [2, 31]
resistance: standard susceptibility testing [1]
R: Cephalexin susceptibility [1, 8] | Cephalexin susceptibility [1, 13] | Cephalexin susceptibility [1, 14] | Cephalexin susceptibility [1, 15] | Cephalexin susceptibility [1, 16] | Cephalexin susceptibility [1, 17] | Cephalexin susceptibility [1, 19] | Cephalexin susceptibility [1, 20] | Cephalexin susceptibility [1, 21] | Cephalexin susceptibility [2, 22] | Cephalexin susceptibility [2, 25]

N=C(N)NCCC[C@H](NC(=O)c1ccccc1)C(=O)Nc1ccc([N+](=O)[O-])cc1 [BAPA, N-benzoyl-L-arginine-p-nitroaniline]
0.7 to 0.8 s⁻¹: KCAT value with papain (papain)

CC1(C)S[C@@H]2[C@H](NC(=O)[C@H](N)c3ccccc3)C(=O)N2[C@H]1C(=O)O [Ampicillin, ampicillin]
68%: E. coli isolates susceptible [3]
R: Ampicillin susceptibility [1, 6] | Ampicillin susceptibility [1, 7] | Ampicillin susceptibility [1, 8] | Ampicillin susceptibility [1, 9] | Ampicillin susceptibility [1, 10] | Ampicillin susceptibility [1, 11] | Ampicillin susceptibility [1, 12] | Ampicillin susceptibility [1, 13] | Ampicillin susceptibility [1, 14] | Ampicillin susceptibility [1, 15] | Ampicillin susceptibility [1, 16] | Ampicillin susceptibility [1, 17] | Ampicillin susceptibility [1, 19] | Ampicillin susceptibility [1, 20] | Ampicillin susceptibility [1, 21] | Ampicillin susceptibility [2, 22] | Ampicillin susceptibility [2, 23] | Ampicillin susceptibility [2, 24] | Ampicillin susceptibility [2, 25] | Ampicillin susceptibility [2, 26] | Ampicillin susceptibility [2, 27] | Ampicillin susceptibility [2, 28] | Ampicillin susceptibility [2, 29]
S: Ampicillin susceptibility [1, 18] | Ampicillin susceptibility [2, 30] | Ampicillin susceptibility [2, 31]
resistance: standard susceptibility testing [1]

O=C(Cc1cccs1)N[C@@H]1C(=O)N2C(C(=O)O)=C(/C=C/c3ccc([N+](=O)[O-])cc3[N+](=O)[O-])CS[C@H]12 [nitrocefin]
10^7 CFU/mL: suspension of SF334 needed to identify β-lactamase activity above background [5]
4 nM: limit of detection of TEM-1 [4]

— patent publication US11385229B2, “Amplification technology using dual enzyme cascade detection” (The Regents of the University of California, priority 2017, dated 2022)
